Data published in patent US5244898A, “Benzoheterocyclic compounds” (Otsuka Pharmaceutical Co., Ltd., priority 1991, dated 1993).

Key:
[1] = biological target: V1 Receptor (Rattus norvegicus, UniProt P30560); experiment: V1 Receptor Binding Assay ([3H]-Arg-vasopressin, rat liver plasma membrane); settings: 37° C., 10 minutes, pH 8.0
Method: After incubation, the mixture is filtered three times using the glass filter (GF/F) so as to separate the membrane preparation combining with vasopressin and then washed with the buffer (5 ml). This glass filter is taken out and mixed with liquid scintillation cocktail. The amount of [^3 H]-vasopressin combining with the membrane is measured by liquid scintillation counter and the rate of the inhibitory effect of the test compound is estimated according to the following equation.
(§1) C1 : The amount of [^3 H]-vasopressin combining with the membrane in the presence of the test compound of a known amount.
(§2) C0 : The amount of [^3 H]-vasopressin combining with the membrane in the absence of the test compound.
B1 : The amount of [^3 H]-vasopressin combining with the membrane in the presence of the excess amount of vasopressin (10^-6 M).
(§3) The results are expressed as IC50 value, which is the concentration of the test compound required to achieve the inhibitory effect in the rate of 50%.

[2] = biological target: T1, V2 Receptor (Rattus norvegicus, UniProt Q00788); experiment: V2 Receptor Binding Assay ([3H]-Arg-vasopressin, rat kidney plasma membrane); settings: 4° C., pH 8.0
T1 construct: rat kidney plasma membrane preparations; from tissue; host or cells: rat kidney plasma membranes
T1 sequence (Q00788 whole entry): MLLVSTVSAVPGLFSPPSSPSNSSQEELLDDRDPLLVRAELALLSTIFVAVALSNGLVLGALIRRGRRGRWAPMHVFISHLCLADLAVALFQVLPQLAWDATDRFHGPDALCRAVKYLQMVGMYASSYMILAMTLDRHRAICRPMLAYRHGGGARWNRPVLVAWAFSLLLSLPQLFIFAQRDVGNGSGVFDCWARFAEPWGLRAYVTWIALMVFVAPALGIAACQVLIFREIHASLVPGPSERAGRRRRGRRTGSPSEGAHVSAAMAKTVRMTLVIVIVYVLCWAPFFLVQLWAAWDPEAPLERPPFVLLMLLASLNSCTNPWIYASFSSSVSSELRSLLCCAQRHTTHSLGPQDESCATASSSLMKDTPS
Method: Chem., 253, 3211 (1978)], the plasma membrane (100000 dpm, 4×10^-10M) of [^3 H]-Arg-vasopressin and a test compound (0.6 mg, 10^-10 -10^-5 M) are incubated at 4° C. for 3 hours in 100 mM Tris-HCl buffer pH: 8.0 (250 μl ) containing 5 mM MgCl2, 1 mM EDTA and 0.1 % BSA. After incubation, the mixture is filtered using the glass filter (GF/F) so as to separate the membrane preparation combining with vasopressin and then washed twice with the buffer (5 ml). This glass filter is taken out and mixed with liquid scintillation cocktail. The amount of [^3 H]-vasopressin combining with the membrane is measured by liquid scintillation counter and the rate of the inhibitory effect of the test compound is estimated according to the following equation. [formula]
as §1, §2
B1 : The amount of [3H-vasopressin combining with the membrane in the presence of the excess amount of vasopressin (10^-6 M).
as §3

Sequence of V1 Receptor (P30560 whole entry): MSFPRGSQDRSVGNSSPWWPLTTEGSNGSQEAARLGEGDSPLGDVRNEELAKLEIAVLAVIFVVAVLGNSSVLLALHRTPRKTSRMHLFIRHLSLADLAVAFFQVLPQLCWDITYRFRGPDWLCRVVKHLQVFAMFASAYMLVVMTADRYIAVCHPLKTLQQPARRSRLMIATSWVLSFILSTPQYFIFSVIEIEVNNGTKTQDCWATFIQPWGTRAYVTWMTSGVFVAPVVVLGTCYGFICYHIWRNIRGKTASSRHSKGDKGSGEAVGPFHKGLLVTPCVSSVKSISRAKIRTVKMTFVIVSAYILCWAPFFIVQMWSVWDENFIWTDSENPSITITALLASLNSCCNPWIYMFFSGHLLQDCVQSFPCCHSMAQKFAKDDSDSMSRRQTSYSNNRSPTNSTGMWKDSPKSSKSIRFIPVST

IC50 [1] [nM]	IC50 [2] [nM]	SMILES
95	16	COc1cc(NC(=O)c2ccccc2C)ccc1C(=O)N1CCCC(CC(=O)N2CCCCC2)c2cc(F)ccc21 (stereo not drawn) [Test Compound 58, 5-[(1-piperidinyl)carbonylmethyl]-7-fluoro-1-[2-methoxy-4-(2-methylbenzoylamino)benzoyl]-2,3,4,5-tetrahydro-1H-benzazepine]
45	10	COc1cc(NC(=O)c2ccccc2Br)ccc1C(=O)N1CCCC(CC(=O)N2CCC(NC(C)=O)CC2)c2cc(F)ccc21 (stereo not drawn) [Test Compound 60, 5-[(4-Acetylamino-1-piperidinyl)carbonylmethyl]-7-fluoro-1-[2-methoxy-4-(2-bromobenzoylamino)benzoyl]-2,3,4,5-tetrahydro-1H-benzazepine]
30	10	COc1cc(NC(=O)c2ccccc2C)ccc1C(=O)N1CCCC(CC(=O)N2CCN(C)CC2)c2cc(Cl)ccc21 (stereo not drawn) [Test Compound 63, 5-[(4-Methyl-1-piperazinyl)carbonylmethyl]-7-chloro-1-[2-methoxy-4-(2-methylbenozylamino)benzoyl]-2,3,4,5-tetrahydro-1H-benzazepine]
